Measurements: patent US11390629B2, “1,5-disubstituted 1,2,3-triazoles are inhibitors of Rac/Cdc42 GTPases” (UNIVERSITY OF PUERTO RICO, priority 2016, dated 2022)
Where “and” joins values, the source holds several entries; their conditions need not be identical. Equal entries are not always repeated. Where two headings read alike, the source gives them in different places.

Key:
[1] = test system: Rac and Cdc42; conditions: cited from earlier work
[2] = target: T1, Rac1 (Homo sapiens, UniProt P63000); assay: Rac activity inhibition by EHop-016 (reported), MDA-MB-435 metastatic cells; type: cell-based
T1 construct: host or cells: MDA-MB-435

[3] = target: Cdc42 (Homo sapiens, UniProt P60953); conditions: cited from earlier work
[4] = test system: mammary tumor; conditions: cited from earlier work
[5] = target: T1, Rac1; conditions: cited from earlier work
[6] = after oral and intraperitoneal (i.p.) administration; cited from earlier work
[7] = test system: MDA-MB-231 cells; assay: Cell viability assay (CellTiter 96 / MTT), MDA-MB-231; conditions: Homo sapiens, MDA-MB-231, read-out: GI50 (μM) MDA-MB-231
[8] = test system: MDA-MB-231; assay: Migration inhibition, MDA-MB-231 (Table 1B); type: cell-based; conditions: Homo sapiens
[9] = test system: Rac; conditions: read-out: IC50 (effective concentrations); cited from earlier work

Chain of Cdc42 (P60953 whole entry): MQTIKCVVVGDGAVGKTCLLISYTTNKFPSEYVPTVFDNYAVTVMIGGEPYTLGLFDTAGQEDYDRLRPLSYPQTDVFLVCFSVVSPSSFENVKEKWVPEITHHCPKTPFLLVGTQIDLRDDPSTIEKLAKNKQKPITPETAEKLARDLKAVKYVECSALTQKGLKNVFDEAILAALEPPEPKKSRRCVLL

## Cc1cc2cc(Nc3ccnc(Nc4ccc5[nH]c(C)cc5c4)n3)ccc2[nH]1 [Aza-1]
[1]
  effective concentration range: effective in the micromolar range

## COc1ccc(C2=NN(c3ccc(S(N)(=O)=O)cc3)C(c3ccccc3)C2)cc1 (centres unmarked) [CID2950007/ML141]
[1]
  effective concentration range: effective in the micromolar range

## CCn1c2ccccc2c2cc(Nc3ccnc(NCCCN4CCOCC4)n3)ccc21 [EHop-016]
[2]
  potency relative to NSC23766: ~100 ×
[3]
  concentrations inhibiting Cdc42 activity: ≥ 10 µM
[3]; higher concentrations (>10 μM)
  inhibition of Cdc42 activity: 75%
[3]; read-out: IC50 for Cdc42 inhibition
  IC50: ~8000 nM
[4]; 10 mg/kg BW
  reduction of tumor growth: ~40%
[4]; 25 mg/kg BW
  effect on mammary tumor growth, metastasis and angiogenesis: reduces mammary tumor growth, metastasis, and angiogenesis
  toxicity: without apparent toxicity
[5]; MDA-MB-435 metastatic cells, read-out: IC50 for Rac activity
  IC50: 1100 nM and ~1100 nM
[5]
  concentrations inhibiting Rac1 activity: < 5 µM
[5]; higher concentrations (>10 μM)
  inhibition of Rac activity: 100%
[5]; read-out: IC50 (Rac inhibitor)
  IC50: 1100 nM
[6]
  average half-life: 4.5 h
  bioavailability: ~30%

## CCn1c2ccccc2c2cc(-n3nncc3-c3cccc(C)c3)ccc21 [I-2, 9-ethyl-3-(5-(m-tolyl)-1H-1,2,3-triazol-1-yl)-9H-carbazole]
[7]
  GI50: 1.33 µM
[8]
  inhibition at 1 µM: ≤ 1%

## CCn1c2ccccc2c2cc(-n3nncc3-c3cccc(OC)c3)ccc21 [I-3, 9-ethyl-3-(5-(3-methoxyphenyl)-1H-1,2,3-triazol-1-yl)-9H-carbazole]
[7]
  GI50: 0.248 µM
[8]
  inhibition at 1 µM: ≤ 1%

## CCn1c2ccccc2c2cc(-n3nncc3-c3cccnc3)ccc21 [I-4, 9-ethyl-3-(5-(pyridin-3-yl)-1H-1,2,3-triazol-1-yl)-9H-carbazole]
[7]
  GI50: > 50 µM
[8]
  inhibition at 10 µM: 65.1%

## CCn1c2ccccc2c2cc(-n3nncc3-c3ccsc3)ccc21 [I-5, 9-ethyl-3-(5-(thiophen-3-yl)-1H-1,2,3-triazol-1-yl)-9H-carbazole]
[7]
  GI50: 0.408 µM
[8]
  inhibition at 1 µM: 2.4%

## CCn1c2ccccc2c2cc(-n3nncc3-c3ccccn3)ccc21 [I-6, 9-ethyl-3-(5-(pyridin-2-yl)-1H-1,2,3-triazol-1-yl)-9H-carbazole]
[7]
  GI50: > 50 µM
[8]
  inhibition at 10 µM: 28%

## CCn1c2ccccc2c2cc(-n3nncc3-c3ccc(Oc4ccccc4)cc3)ccc21 [I-7]
[7]
  GI50: > 50 µM
[8]
  inhibition at 10 µM: 30.8%

## CCn1c2ccccc2c2cc(-n3nncc3CCO)ccc21 [I-8, 2-(1-(9-ethyl-9H-carbazol-3-yl)-1H-1,2,3-triazol-5-yl)ethan-1-ol]
[7]
  GI50: > 50 µM

## CCN(CC)CCCC(C)Nc1nc(C)cc(Nc2ccc3nc(C)cc(N)c3c2)n1 (centres unmarked) [NSC23766]
[9]
  IC50: > 75000 nM
